Test results reported in patent US11147884B2, “Inhibitors of NHE-mediated antiport” (Ardelyx, Inc., priority 2017, dated 2021).

Legend:
[1] = human absorption data, from Ertl et al., J. Med. Chem., 2000; cited from earlier work
human NHE3 [2] = biological target: T1, human NHE3 (Homo sapiens, UniProt P48764); test: Cell-based assay of NHE-3 activity (pre-incubation inhibition), human; details: human Preincuba assay; PS120 fibroblasts expressing human NHE3 and NHERF2
T1 construct: host or cells: PS120 fibroblasts
T1 sequence (P48764 26-834): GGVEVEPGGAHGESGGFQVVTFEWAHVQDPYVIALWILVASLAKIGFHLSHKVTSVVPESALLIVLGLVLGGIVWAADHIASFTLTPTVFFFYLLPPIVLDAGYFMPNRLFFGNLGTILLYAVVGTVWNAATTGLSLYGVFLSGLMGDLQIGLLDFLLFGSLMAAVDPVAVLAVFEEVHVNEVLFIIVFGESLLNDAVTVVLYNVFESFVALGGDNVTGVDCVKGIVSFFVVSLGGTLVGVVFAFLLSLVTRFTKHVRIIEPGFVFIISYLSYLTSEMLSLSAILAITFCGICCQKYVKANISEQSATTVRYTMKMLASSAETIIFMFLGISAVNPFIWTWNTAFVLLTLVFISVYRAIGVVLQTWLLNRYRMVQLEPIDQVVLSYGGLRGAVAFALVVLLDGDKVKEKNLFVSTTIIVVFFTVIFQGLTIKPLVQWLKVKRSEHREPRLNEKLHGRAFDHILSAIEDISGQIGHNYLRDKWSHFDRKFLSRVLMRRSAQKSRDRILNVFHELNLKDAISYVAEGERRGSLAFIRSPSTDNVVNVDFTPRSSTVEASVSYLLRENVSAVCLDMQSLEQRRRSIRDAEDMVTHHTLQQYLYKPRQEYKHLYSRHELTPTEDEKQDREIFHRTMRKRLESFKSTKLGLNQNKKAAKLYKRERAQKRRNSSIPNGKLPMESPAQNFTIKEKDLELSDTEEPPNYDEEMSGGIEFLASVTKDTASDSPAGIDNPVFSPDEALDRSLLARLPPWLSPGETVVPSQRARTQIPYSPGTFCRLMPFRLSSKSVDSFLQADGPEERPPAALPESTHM
T1 sequence (Q99653 2-195 partner limits assumed): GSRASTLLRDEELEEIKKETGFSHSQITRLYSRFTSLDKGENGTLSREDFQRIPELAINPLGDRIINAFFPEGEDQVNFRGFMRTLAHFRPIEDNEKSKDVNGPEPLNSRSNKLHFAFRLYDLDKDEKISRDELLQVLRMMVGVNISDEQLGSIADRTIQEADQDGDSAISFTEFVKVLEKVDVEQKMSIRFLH
Experimental: Rat and human NHE-3-mediated Na^+-dependent H^+ antiport was measured using a modification of the pH sensitive dye method originally reported by Paradiso (Proc. Natl. Acad. Sci. USA. (1984) 81(23): 7436-7440). PS120 fibroblasts stably expressing human NHE3 and NHERF2 were obtained from Mark Donowitz (Baltimore, Md.). Opossum kidney (OK) cells were obtained from the ATCC and propagated per their instructions. The rat NHE-3 gene (GenBank M85300) was introduced into OK cells via electroporation, and cells were seeded into 96 well plates and grown overnight. Medium was aspirated from the wells then incubated for 30 min at 37° C. with NH4Cl-HEPES buffer (20 mM […], 80 mM NaCl, 50 mM HEPES, 5 mM KCl, 2 mM CaCl2, 1 mM MgCl2, pH 7.4) containing 5 μM BCECF-AM. Cells were washed once with Ammonium free, Na^t-free HEPES (100 mM choline, 50 mM HEPES, 10 mM glucose, 5 mM KCl, 2 mM CaCl2), 1 mM MgCl2, pH 7.4) and incubated in the same buffer for 10 minutes at room temperature to lower intracellular pH with 0-30 μM test compound. […] Changes in intracellular pH were monitored using a FLIPR Tetra®® (Molecular Devices, Sunnyvale, Calif.) by excitation at λex 439 to 505 nm, and measuring BCECF fluorescence at λem 538 nm. The initial rate of the fluorescence ratio change was used as a measure of NHE-mediated Na^+/H^+ activity, and reported as the change in fluorescence ratio per minute.

human NHE3 [3] = biological target: T1, human NHE3; test: Cell-based assay of NHE-3 activity (persistent inhibition after washout), human; details: human Persistence assay; after 60 min incubation and washout
Experimental: The ability of compounds to inhibit human and rat NHE-3-mediated Na^+-dependent H^+ antiport after application and washout was measured using a modification of the pH sensitive dye method described above. PS120 fibroblasts stably expressing human NHE3 and NHERF2 were obtained from Mark Donowitz (Baltimore, Md.). Opossum kidney (OK) cells were obtained from the ATCC and propagated per their instructions. The rat NHE-3 gene was introduced into OK cells via electroporation, and cells were seeded into 96 well plates and grown overnight. Medium was aspirated from the wells, cells were washed once with NaCl-HEPES buffer (100 mM NaCl, 50 mM HEPES, 10 mM glucose, 5 mM KCl, 2 mM CaCl2, 1 mM MgCl2, pH 7.4), then overlayed with NaCl-HEPES buffer containing 0-30 μM test compound. After a 60 min incubation at room temperature, the test drug containing buffer was aspirated from the cells. Following aspiration, cells were washed once with NaCl-HEPES buffer without drug, then incubated for 30 min at 37° C. with NH4Cl-HEPES buffer (20 mM NH4Cl, 80 mM NaCl, 50 mM HEPES. 5 mM KCl, 2 mM CaCl2), 1 mM MgCl2, pH 7.4) containing 5 μM BCECF-AM. Cells were washed once with Ammonium free, Na^+-free HEPES (100 mM choline, 50 mM HEPES, 10 mM glucose. 5 mM KCl, 2 mM CaCl2), 1 mM MgCl2, pH 7.4) and incubated in the same buffer for 10 minutes at room temperature to lower intracellular pH. NHE-3-mediated recovery of neutral intracellular pH was initiated (10 min after compound washout) by addition of Na-HEPES buffer. […] Changes in intracellular pH were monitored using a FLIPR Tetra® (Molecular Devices, Sunnyvale, Calif.) by excitation at λex 439 to 505 nm, and measuring BCECF fluorescence at λem 538 nm. The initial rate of the fluorescence ratio change was used as a measure of NHE-mediated Na^+/H^+ activity, and reported as the change in fluorescence ratio per minute.

SMILES	$ FA [1]	% inhibition (human NHE3 [2])	IC50 (human NHE3 [2])	% inhibition (human NHE3 [3])	IC50 (human NHE3 [3])
CC(=O)Nc1ccc(OCC(O)CNC(C)C)cc1 (stereo not shown) [practolol]	95				
O=C(O)c1cc(/N=N/c2ccc(S(=O)(=O)Nc3ccccn3)cc2)ccc1O [sulfasalazine]	12				
CC(C)[C@H](COCCOCCNC(=O)NCCCCNC(=O)NCCOCCOC[C@H](NS(=O)(=O)c1cccc([C@@H]2CN(C)Cc3c(Cl)cc(Cl)cc32)c1)C(C)C)NS(=O)(=O)c1cccc([C@@H]2CN(C)Cc3c(Cl)cc(Cl)cc32)c1 [Example 51]		A (NHE3 <40%)	> 1000 nM	A (NHE3 <40%)	> 1000 nM
O=C(O)c1cc(/N=N/c2ccc(O)c(C(=O)O)c2)ccc1O [olsalazine]	2.3				
CN1Cc2c(Cl)cc(Cl)cc2[C@H](c2cccc(S(=O)(=O)N3CCC(OCCOCCNC(=O)NCCCCNC(=O)NCCOCCOC4CCN(S(=O)(=O)c5cccc([C@@H]6CN(C)Cc7c(Cl)cc(Cl)cc76)c5)CC4)CC3)c2)C1 [Example 48]		C (>70%)	< 100 nM	C (>70%)	100 to 1000 nM
NC[C@H]1CC[C@H](C(=O)O)CC1 [tranexamic acid]	55				
OC[C@@H](O)[C@@H](O)[C@H](O)[C@H](O)CO [mannitol]	26				
CCN1CCCC1CNC(=O)c1cc(S(N)(=O)=O)ccc1OC (stereo not shown) [sulpiride]	36				
O=C(O)P(=O)(O)O [foscarnet]	17				
CN1Cc2c(Cl)cc(Cl)cc2C(c2cccc(S(=O)(=O)N[C@@H]3CCN(CCOCCNC(=O)NCCCCNC(=O)NCCOCCN4CC[C@@H](NS(=O)(=O)c5cccc(C6CN(C)Cc7c(Cl)cc(Cl)cc76)c5)C4)C3)c2)C1 (stereo partly drawn) [Example 24, N,N′-[(3R,3′R)-(7,14-Dioxo-3,18-dioxa-6,8,13,15-tetraazaicosane-1,20-diyl)bis(pyrrolidine-1,3-diyl)]bis[3-(6,8-dichloro-2-methyl-1,2,3,4-tetrahydroisoquinolin-4-yl)benzenesulfonamide]]		C (>70%)	< 100 nM	C (>70%)	< 100 nM
CN1Cc2c(Cl)cc(Cl)cc2[C@H](c2cccc(S(=O)(=O)NC(C)(C)COCCOCCNC(=O)NCCCCNC(=O)NCCOCCOCC(C)(C)NS(=O)(=O)c3cccc([C@@H]4CN(C)Cc5c(Cl)cc(Cl)cc54)c3)c2)C1 [Example 47, 3-(2-[2-[2-([3-[(4S)-6,8-dichloro-2-methyl-1,2,3,4-tetrahydroisoquinolin-4-yl]benzene]sulfonamido)-2-methylpropoxy]ethoxy]ethyl)-1-(4-[[(2-[2-[2-([3-[(4S)-6,8-dichloro-2-methyl-1,2,3,4-tetrahydroisoquinolin-4-yl]benzene]sulfonamido)-2-methylpropoxy]ethoxy]ethyl)carbamoyl]amino]butyl)urea]		C (>70%)	< 100 nM	C (>70%)	100 to 1000 nM
OC[C@H]1O[C@@H](O[C@@H]2[C@@H](CO)OC(O)(CO)[C@H]2O)[C@H](O)[C@@H](O)[C@H]1O (mixture of isomers) [lactulose]	0.6				
CN1Cc2c(Cl)cc(Cl)cc2[C@H](c2cccc(S(=O)(=O)N3CC[C@H](OCCOCCNC(=O)NCCCCNC(=O)NCCOCCO[C@H]4CCN(S(=O)(=O)c5cccc([C@@H]6CN(C)Cc7c(Cl)cc(Cl)cc76)c5)C4)C3)c2)C1 [Example 50]		C (>70%)	< 100 nM	C (>70%)	100 to 1000 nM
C=CCOc1ccccc1OCC(O)CNC(C)C (stereo not shown) [oxyprenolol]	97				
OC[C@H]1O[C@H](OC[C@H]2O[C@H](O[C@]3(CO)O[C@H](CO)[C@@H](O)[C@@H]3O)[C@H](O)[C@@H](O)[C@@H]2O)[C@H](O)[C@@H](O)[C@H]1O [raffinose]	0.3				
CC(C)NCC(O)COc1cccc2[nH]ccc12 (stereo not shown) [pindolol]	92				
CN1Cc2c(Cl)cc(Cl)cc2[C@H](c2cccc(S(=O)(=O)N3CC[C@@H](OCCOCCNC(=O)NCCCCNC(=O)NCCOCCO[C@@H]4CCN(S(=O)(=O)c5cccc([C@@H]6CN(C)Cc7c(Cl)cc(Cl)cc76)c5)C4)C3)c2)C1 [Example 49, 1-(2-(2-(((R)-1-((3-((S)-6,8-dichloro-2-methyl-1,2,3,4-tetrahydroisoquinolin-4-yl)phenyl)sulfonyl)pyrrolidin-3-yl)oxy)ethoxy)ethyl)-3-(4-(3-(2-(2-(((R)-1-((3-((S)-6,8-dichloro-2-methyl-1,2,3,4-tetrahydroisoquinolin-4-yl)phenyl)sulfonyl)pyrrolidin-3-yl)oxy)ethoxy)ethyl)ureido)buty)urea]		C (>70%)	< 100 nM	C (>70%)	100 to 1000 nM
Cc1ccccc1N1C(=O)c2cc(S(N)(=O)=O)c(Cl)cc2NC1C (stereo not shown) [metolazone]	64				
C=CCc1ccccc1OCC(O)CNC(C)C (stereo not shown) [alprenolol]	96				
